Measurements as given in ChEMBL document CHEMBL4184222, “A multifaceted approach to identify non-specific enzyme inhibition: Application to Mycobacterium tuberculosis shikimate kinase” (Bioorg Med Chem Lett, 2018).
Converted amounts (≈) assume the structure as drawn.

How the values were obtained:
[1] = Aggregation property of the compound in ammonium acetate buffer at pH 7.6 assessed as light scattering intensity counts at 30 uM in absence of Triton X-100 by dynamic light scattering method; format: physicochemical; conditions: pH 7.6, 30 µM
[2] = test system: Mycobacterium tuberculosis; test: Inhibition of Mycobacterium tuberculosis shikimate kinase assessed as reduction in S3P production at 30 uM pre-incubated with 0.02 uM enzyme for 30 mins before ATP and shikimate substrate addition in presence of Triton X-100 by LC-MS assay
[3] = Aggregation property of the compound in water at pH 7 assessed as light scattering intensity counts at 10 uM in presence of Triton X-100 by dynamic light scattering method; format: physicochemical; conditions: buffer, pH 7, 10 µM
[4] = Aggregation property of the compound in water at pH 7 assessed as particle size at 30 uM in absence of Triton X-100 by dynamic light scattering method; format: physicochemical; conditions: buffer, pH 7, 30 µM
[5] = Aggregation property of the compound in ammonium acetate buffer at pH 7.6 assessed as particle size at 30 uM in absence of Triton X-100 by transmission electron microscopy; format: physicochemical; conditions: pH 7.6, 30 µM
[6] = Aggregation property of the compound in ammonium acetate buffer at pH 7.6 assessed as light scattering intensity counts at 10 uM in absence of Triton X-100 by dynamic light scattering method; format: physicochemical; conditions: pH 7.6, 10 µM
[7] = Aggregation property of the compound in water at pH 7 assessed as particle size at 10 uM in absence of Triton X-100 by dynamic light scattering method; format: physicochemical; conditions: buffer, pH 7, 10 µM
[8] = test system: Mycobacterium tuberculosis; test: Inhibition of Mycobacterium tuberculosis shikimate kinase assessed as reduction in S3P production at 30 uM pre-incubated with 0.02 uM enzyme for 30 mins before ATP and shikimate substrate addition in absence of Triton X-100 by LC-MS assay
[9] = Aggregation property of the compound in water at pH 7 assessed as light scattering intensity counts at 30 uM in presence of Triton X-100 by dynamic light scattering method; format: physicochemical; conditions: buffer, pH 7, 30 µM
[10] = Aggregation property of the compound in ammonium acetate buffer at pH 7.6 assessed as light scattering intensity counts at 30 uM in presence of Triton X-100 by dynamic light scattering method; format: physicochemical; conditions: pH 7.6, 30 µM
[11] = Aggregation property of the compound in ammonium acetate buffer at pH 7.6 assessed as particle size at 10 uM in presence of Triton X-100 by dynamic light scattering method; format: physicochemical; conditions: pH 7.6, 10 µM
[12] = Aggregation property of the compound in ammonium acetate buffer at pH 7.6 assessed as particle size at 30 uM in presence of Triton X-100 by transmission electron microscopy; format: physicochemical; conditions: pH 7.6, 30 µM
[13] = Aggregation property of the compound in ammonium acetate buffer at pH 7.6 assessed as light scattering intensity counts at 3 uM in presence of Triton X-100 by dynamic light scattering method; format: physicochemical; conditions: pH 7.6, 3 µM
[14] = Aggregation property of the compound in water at pH 7 assessed as particle size at 30 uM in presence of Triton X-100 by dynamic light scattering method; format: physicochemical; conditions: buffer, pH 7, 30 µM
[15] = Aggregation property of the compound in water at pH 7 assessed as light scattering intensity counts at 30 uM in absence of Triton X-100 by dynamic light scattering method; format: physicochemical; conditions: buffer, pH 7, 30 µM
[16] = Aggregation property of the compound in ammonium acetate buffer at pH 7.6 assessed as particle size at 3 uM in absence of Triton X-100 by dynamic light scattering method; format: physicochemical; conditions: pH 7.6, 3 µM
[17] = Aggregation property of the compound in water at pH 7 assessed as particle size at 3 uM in presence of Triton X-100 by dynamic light scattering method; format: physicochemical; conditions: buffer, pH 7, 3 µM
[18] = Aggregation property of the compound in water at pH 7 assessed as light scattering intensity counts at 3 uM in absence of Triton X-100 by dynamic light scattering method; format: physicochemical; conditions: buffer, pH 7, 3 µM
[19] = Aggregation property of the compound in ammonium acetate buffer at pH 7.6 assessed as light scattering intensity counts at 3 uM in absence of Triton X-100 by dynamic light scattering method; format: physicochemical; conditions: pH 7.6, 3 µM
[20] = Aggregation property of the compound in water at pH 7 assessed as particle size at 3 uM in absence of Triton X-100 by dynamic light scattering method; format: physicochemical; conditions: buffer, pH 7, 3 µM
[21] = Inhibition of Mycobacterium tuberculosis shikimate kinase assessed as reduction in S3P production […] pre-incubated with 0.015 uM enzyme for 30 mins before ATP and shikimate substrate addition by LC-MS assay
[22] = Aggregation property of the compound in water at pH 7 assessed as light scattering intensity counts at 3 uM in presence of Triton X-100 by dynamic light scattering method; format: physicochemical; conditions: buffer, pH 7, 3 µM
[23] = test system: Mycobacterium tuberculosis; test: Inhibition of Mycobacterium tuberculosis shikimate kinase assessed as reduction in S3P production at 30 uM pre-incubated with 0.2 uM enzyme for 30 mins before ATP and shikimate substrate addition in absence of Triton X-100 by LC-MS assay
[24] = Aggregation property of the compound in ammonium acetate buffer at pH 7.6 assessed as particle size at 10 uM in absence of Triton X-100 by dynamic light scattering method; format: physicochemical; conditions: pH 7.6, 10 µM
[25] = Aggregation property of the compound in ammonium acetate buffer at pH 7.6 assessed as particle size at 3 uM in presence of Triton X-100 by dynamic light scattering method; format: physicochemical; conditions: pH 7.6, 3 µM
[26] = Aggregation property of the compound in ammonium acetate buffer at pH 7.6 assessed as particle size at 30 uM in presence of Triton X-100 by dynamic light scattering method; format: physicochemical; conditions: pH 7.6, 30 µM
[27] = Aggregation property of the compound in ammonium acetate buffer at pH 7.6 assessed as light scattering intensity counts at 10 uM in presence of Triton X-100 by dynamic light scattering method; format: physicochemical; conditions: pH 7.6, 10 µM
[28] = Aggregation property of the compound in water at pH 7 assessed as particle size at 10 uM in presence of Triton X-100 by dynamic light scattering method; format: physicochemical; conditions: buffer, pH 7, 10 µM
[29] = test system: Mycobacterium tuberculosis; test: Inhibition of Mycobacterium tuberculosis shikimate kinase assessed as reduction in S3P production at 30 uM pre-incubated with 0.2 uM enzyme for 30 mins before ATP and shikimate substrate addition in presence of Triton X-100 by LC-MS assay
[30] = Aggregation property of the compound in ammonium acetate buffer at pH 7.6 assessed as particle size at 30 uM in absence of Triton X-100 by dynamic light scattering method; format: physicochemical; conditions: pH 7.6, 30 µM
[31] = Aggregation property of the compound in water at pH 7 assessed as light scattering intensity counts at 10 uM in absence of Triton X-100 by dynamic light scattering method; format: physicochemical; conditions: buffer, pH 7, 10 µM
[32] = Aggregation property of the compound in potassium phosphate buffer at pH 7.2 assessed as micelle formation by measuring peal broadening at 12.5 to 200 uM by one-dimensional 1H-NMR spectroscopy; format: physicochemical; conditions: pH 7.2, 200 µM
[33] = test system: Mycobacterium tuberculosis; test: Inhibition of Mycobacterium tuberculosis shikimate kinase assessed as reduction in S3P production at <50 uM pre-incubated for 30 mins before ATP and shikimate substrate addition by LC-MS assay
[34] = Aggregation property of the compound in ammonium acetate buffer at pH 7.6 assessed as particle size at 100 uM in absence of Triton X-100 by dynamic light scattering method; format: physicochemical; conditions: pH 7.6, 100 µM
[35] = Aggregation property of the compound in potassium phosphate buffer at pH 7.2 assessed as micelle formation by measuring peal broadening at 6.25 to 200 uM by one-dimensional 1H-NMR spectroscopy; format: physicochemical; conditions: pH 7.2, 200 µM
[36] = Inhibition of Mycobacterium tuberculosis shikimate kinase assessed as reduction in S3P production pre-incubated for 30 mins before ATP and shikimate substrate addition by LC-MS assay
[37] = Aggregation property of the compound in ammonium acetate buffer at pH 7.6 assessed as light scattering intensity counts at 100 uM in absence of Triton X-100 by dynamic light scattering method; format: physicochemical; conditions: pH 7.6, 100 µM
[38] = Aggregation property of the compound in water at pH 7 assessed as particle size at 100 uM in absence of Triton X-100 by dynamic light scattering method; format: physicochemical; conditions: buffer, pH 7, 100 µM
[39] = test system: Mycobacterium tuberculosis; test: Antimycobacterial activity against Mycobacterium tuberculosis H37Rv; format: functional
[40] = Aggregation property of the compound in water at pH 7 assessed as light scattering intensity counts at 100 uM in absence of Triton X-100 by dynamic light scattering method; format: physicochemical; conditions: buffer, pH 7, 100 µM
[41] = Aggregation property of the compound in water at pH 7 assessed as light scattering intensity counts at 100 uM in presence of Triton X-100 by dynamic light scattering method; format: physicochemical; conditions: buffer, pH 7, 100 µM
[42] = Aggregation property of the compound in water at pH 7 assessed as particle size at 100 uM in presence of Triton X-100 by dynamic light scattering method; format: physicochemical; conditions: buffer, pH 7, 100 µM
[43] = Aggregation property of the compound in ammonium acetate buffer at pH 7.6 assessed as light scattering intensity counts at 100 uM in presence of Triton X-100 by dynamic light scattering method; format: physicochemical; conditions: pH 7.6, 100 µM
[44] = Aggregation property of the compound in ammonium acetate buffer at pH 7.6 assessed as particle size at 100 uM in presence of Triton X-100 by dynamic light scattering method; format: physicochemical; conditions: pH 7.6, 100 µM

COc1cc(C=O)ccc1OCc1ccccc1COc1ccc(/C=C2/SC(=S)NC2=O)cc1OC
Activity [1]: 30 kCounts
inhibition [2]: 98%
Activity [3]: 2 kCounts
Activity [4]: 80 nm
Activity [5]: 100 nm
Activity [6]: 4 kCounts
Activity [7]: 0 nm
inhibition [8]: 96%
Activity [9]: 5 kCounts
Activity [10]: 5 kCounts
Activity [11]: 0 nm
Activity [12]: 5 nm
Activity [13]: 0 kCounts
Activity [14]: 0 nm
Activity [15]: 30 kCounts
Activity [16]: 0 nm
Activity [17]: 0 nm
Activity [18]: 0 kCounts
Activity [19]: 0 Counts
Activity [20]: 0 nm
IC50 [21]: 10.1 µM
Activity [22]: 0 kCounts
inhibition [23]: 55%
Activity [24]: 0 nm
Activity [25]: 0 nm
Activity [26]: 0 nm
Activity [27]: 4 kCounts
Activity [28]: 0 nm
inhibition [29]: 83%
Activity [30]: 80 nm
Activity [31]: 2 kCounts

Nc1nc2ccc(OC(F)(F)F)cc2s1 [RILUZOLE]
Activity [32]: Not Active

CCSc1ccc(C(=O)Nc2nnc(-c3ccco3)o2)cc1
inhibition [33]: > 90%
Activity [34]: 1151 nm
Activity [35]: Active
IC50 [36]: 20.7 µM
Activity [37]: 250 kCounts
Activity [38]: 1123 nm
IC90 [39]: 0.71 µg/mL (≈ 2.25 µM)
Activity [40]: 245 kCounts
Activity [41]: 85 kCounts
Activity [42]: 182 nm
Activity [43]: 100 kCounts
Activity [44]: 185 nm
